Counter-ions that a name gives are not always drawn.
Key:
PI3Kβ = biological target: T1, PI3Kβ (Homo sapiens, UniProt P42338); test: kinobeads assay, PI3Kβ; format: binding; conditions: 1:1 mix of Jurkat and Ramos cell lysates, read-out: Inhibition values (IC50 in μM) as determined in the kinobeads assay, PI3Kβ
T1 construct: endogenous in cells; host or cells: Jurkat (ATCC TIB-152, clone E6-1) and Ramos (ATCC CRL-1596), 1:1 lysate mix
Experimental: (§1) The compounds of the present invention as described were tested in the mTOR kinobeads assay as described below. Briefly, test compounds (at various concentrations) and the affinity matrix (1:1 mixture of beads with immobilized phenylthiazole ligand 1 and beads with immobilized phenylmorpholin-chromen ligand; WO 2009/098021) were added to cell lysate aliquots and allowed to bind to the proteins in the lysate sample. After the incubation time the beads with captured proteins were separated from the lysate. Bound proteins were then eluted and the presence of mTOR, PI3Kα, PI3Kβ, PI3Kγ, PI3Kδ and DNA-dependent protein kinase (DNA-PK) was detected and quantified using a specific antibody in a dot blot procedure and the Odyssey infrared detection system. Dose response curves for individual kinases were generated and IC50 values calculated. Kinobeads assays for PI3 kinases (WO-A 2008/015013) and for kinase selectivity profiling (WO 2009/098021) have been previously described.
(§2) Washing of Affinity Matrix
(§3) The affinity matrix was washed two times with 15 ml of 1×DP buffer containing 0.2% NP40 (IGEPAL® CA-630, Sigma, #13021) and then resupended in 5.5 ml of 1×DP buffer containing 0.2% NP40 (10% beads slurry).
(§4) 5×DP buffer: 250 mM Tris-HCl pH 7.4, 25% Glycerol, 7.5 mM MgCl2, 750 mM NaCl, 5 mM Na3VO4, filter the 5×-lysis buffer through 0.22 μm filter and store in aliquots at −80° C. The 5×DP buffer is diluted to 1×DP buffer containing 1 mM DTT and 25 mM NaF.
(§5) Preparation of Test Compounds
(§6) Stock solutions of test compounds were prepared in DMSO. In a 96 well plate 30 μl solution of diluted test compounds at 5 mM in DMSO were prepared. Starting with this solution a 1:3 dilution series (9 steps) was prepared. For control experiments (no test compound) a buffer containing 2% DMSO was used. Compound Pi-103 (Calbiochem catalogue number 528100) served as a positive control.
(§7) Cell Culture and Preparation of Cell Lysates
(§8) Jurkat cells (ATCC catalogue number TIB-152 Jurkat, clone E6-1) and Ramos cells (ATCC number CRL-1596) were grown in 1 litre Spinner flasks (Integra Biosciences, #182101) in suspension in RPMI 1640 medium (Invitrogen, #21875-034) supplemented with 10% Fetal Bovine Serum (Invitrogen) at a density between 0.15×10^6 and 1.2×10^6 cells/ml. Cells were harvested by centrifugation, washed once with 1×PBS buffer (Invitrogen, #14190-094) and cell pellets were frozen in liquid nitrogen and subsequently stored at −80° C.
(§9) Cells were homogenized in a Potter S homogenizer in lysis buffer: 50 mM Tris-HCl, 0.8% NP40, 5% glycerol, 150 mM NaCl, 1.5 mM MgCl2, 25 mM NaF, 1 mM sodium vanadate, 1 mM DTT, pH 7.5. One complete EDTA-free tablet (protease inhibitor cocktail, Roche Diagnostics, 1873580) per 25 ml buffer was added. The material was dounced 10 times using a mechanized POTTER S, transferred to 50 ml falcon tubes, incubated for 30 minutes on ice and spun down for 10 min at 20,000 g at 4° C. (10,000 rpm in Sorvall SLA600, precooled). The supernatant was transferred to an ultracentrifuge (UZ)-polycarbonate tube (Beckmann, 355654) and spun for 1 hour at 100.000 g at 4° C. (33.500 rpm in Ti50.2, precooled). The supernatant was transferred again to a fresh 50 ml falcon tube, the protein concentration was determined by a Bradford assay (BioRad) and samples containing 50 mg of protein per aliquot were prepared. The samples were immediately used for experiments or frozen in liquid nitrogen and stored frozen at −80° C.
(§10) Cell lysate (approximately 50 mg protein per plate) was thawed in a water bath at room temperature and then kept on ice. To the thawed cell lysate 1×DP 0.8% NP40 buffer containing protease inhibitors (1 tablet for 25 ml buffer; EDTA-free protease inhibitor cocktail; Roche Diagnostics 1873580) was added in order to reach a final protein concentration of 5 mg/ml total protein. For the kinobeads experiment a 1:1 mix of Jurkat and Ramos cell lysates was used. The diluted cell lysate was stored on ice. […]

[1] = biological target: T2, DNA-dependent protein kinase (DNA-PK) (Homo sapiens, UniProt P78527); test: kinobeads assay, DNA-PK; format: binding; conditions: 1:1 mix of Jurkat and Ramos cell lysates, read-out: Inhibition values (IC50 in μM) as determined in the kinobeads assay, DNA-PK
T2 construct: endogenous in cells; host or cells: Jurkat (ATCC TIB-152, clone E6-1) and Ramos (ATCC CRL-1596), 1:1 lysate mix
Experimental: as §1, §2, §3, §4, §5, §6, §7, §8, §9, §10

mTOR = biological target: T3, mTOR (Homo sapiens, UniProt P42345); test: mTOR kinobeads assay (competition binding in cell lysate, dot blot detection); conditions: 1:1 mix of Jurkat and Ramos cell lysates, read-out: Inhibition values (IC50 in μM) as determined in the kinobeads assay, mTor
T3 construct: endogenous in cells; host or cells: Jurkat (ATCC TIB-152, clone E6-1) and Ramos (ATCC CRL-1596), 1:1 lysate mix
Experimental: Determination of the Effect of the Compounds According to the Invention on mTOR
as §1, §2, §3, §4, §5, §6, §7, §8, §9
as §10, with “used.” for “used. The diluted cell lysate was stored on ice.”

PI3Kδ = biological target: T4, PI3Kδ (Homo sapiens, UniProt O00329); test: kinobeads assay, PI3Kδ; format: binding; conditions: 1:1 mix of Jurkat and Ramos cell lysates, read-out: Inhibition values (IC50 in μM) as determined in the kinobeads assay, PI3Kδ
T4 construct: endogenous in cells; host or cells: Jurkat (ATCC TIB-152, clone E6-1) and Ramos (ATCC CRL-1596), 1:1 lysate mix
T4 sequence (O00329 whole entry): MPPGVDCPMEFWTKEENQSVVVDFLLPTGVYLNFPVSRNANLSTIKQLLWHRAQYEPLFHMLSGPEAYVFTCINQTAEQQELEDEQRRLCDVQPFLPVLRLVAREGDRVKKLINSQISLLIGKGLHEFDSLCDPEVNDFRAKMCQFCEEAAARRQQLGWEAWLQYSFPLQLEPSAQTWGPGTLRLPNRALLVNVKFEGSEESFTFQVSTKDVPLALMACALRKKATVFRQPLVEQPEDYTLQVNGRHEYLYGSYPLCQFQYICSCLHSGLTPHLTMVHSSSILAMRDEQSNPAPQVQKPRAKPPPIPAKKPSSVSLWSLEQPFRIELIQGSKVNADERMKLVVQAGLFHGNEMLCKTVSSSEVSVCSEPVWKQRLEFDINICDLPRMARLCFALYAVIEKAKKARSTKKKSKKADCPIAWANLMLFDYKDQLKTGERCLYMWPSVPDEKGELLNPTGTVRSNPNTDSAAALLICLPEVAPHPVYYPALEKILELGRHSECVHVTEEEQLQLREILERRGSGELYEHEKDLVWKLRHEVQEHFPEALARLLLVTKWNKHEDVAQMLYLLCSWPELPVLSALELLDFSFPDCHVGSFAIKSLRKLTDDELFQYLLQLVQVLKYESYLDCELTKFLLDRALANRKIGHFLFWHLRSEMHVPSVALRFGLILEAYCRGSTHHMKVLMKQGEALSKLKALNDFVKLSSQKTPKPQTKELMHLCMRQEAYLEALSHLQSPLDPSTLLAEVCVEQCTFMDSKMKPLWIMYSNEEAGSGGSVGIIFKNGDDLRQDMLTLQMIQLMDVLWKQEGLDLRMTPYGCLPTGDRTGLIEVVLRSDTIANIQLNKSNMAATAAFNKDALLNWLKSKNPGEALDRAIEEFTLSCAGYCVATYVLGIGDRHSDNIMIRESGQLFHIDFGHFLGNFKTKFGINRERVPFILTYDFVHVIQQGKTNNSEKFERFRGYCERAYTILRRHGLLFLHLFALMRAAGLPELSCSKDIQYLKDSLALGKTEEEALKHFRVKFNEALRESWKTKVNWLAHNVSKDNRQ
T4 sequence (P27986 whole entry partner): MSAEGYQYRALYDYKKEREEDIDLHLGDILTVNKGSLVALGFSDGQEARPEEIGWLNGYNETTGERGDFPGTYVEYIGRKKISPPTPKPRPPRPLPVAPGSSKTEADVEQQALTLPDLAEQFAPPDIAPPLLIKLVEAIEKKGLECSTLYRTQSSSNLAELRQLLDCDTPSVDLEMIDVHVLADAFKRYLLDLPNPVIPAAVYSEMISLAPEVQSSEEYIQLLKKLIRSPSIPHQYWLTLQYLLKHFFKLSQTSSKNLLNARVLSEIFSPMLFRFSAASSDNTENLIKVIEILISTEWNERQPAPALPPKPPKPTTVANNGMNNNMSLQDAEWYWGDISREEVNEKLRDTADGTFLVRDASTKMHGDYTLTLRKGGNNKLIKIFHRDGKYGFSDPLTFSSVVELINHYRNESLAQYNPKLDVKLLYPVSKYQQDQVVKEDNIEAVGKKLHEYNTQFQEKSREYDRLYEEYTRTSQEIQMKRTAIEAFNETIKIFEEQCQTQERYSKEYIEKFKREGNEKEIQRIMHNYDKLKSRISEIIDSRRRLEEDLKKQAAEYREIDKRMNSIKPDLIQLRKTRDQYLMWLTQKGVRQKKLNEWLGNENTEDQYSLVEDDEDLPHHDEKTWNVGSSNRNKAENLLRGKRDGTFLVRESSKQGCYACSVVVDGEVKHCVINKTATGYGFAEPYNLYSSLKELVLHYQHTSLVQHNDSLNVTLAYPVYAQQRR
Experimental: as §1, §2, §3, §4, §5, §6, §7, §8, §9, §10

PI3Kα = biological target: T5, PI3Kα (Homo sapiens, UniProt P42336); test: kinobeads assay, PI3Kα; format: binding; conditions: 1:1 mix of Jurkat and Ramos cell lysates, read-out: Inhibition values (IC50 in μM) as determined in the kinobeads assay, PI3Kα
T5 construct: endogenous in cells; host or cells: Jurkat (ATCC TIB-152, clone E6-1) and Ramos (ATCC CRL-1596), 1:1 lysate mix
T5 sequence (P42336 whole entry): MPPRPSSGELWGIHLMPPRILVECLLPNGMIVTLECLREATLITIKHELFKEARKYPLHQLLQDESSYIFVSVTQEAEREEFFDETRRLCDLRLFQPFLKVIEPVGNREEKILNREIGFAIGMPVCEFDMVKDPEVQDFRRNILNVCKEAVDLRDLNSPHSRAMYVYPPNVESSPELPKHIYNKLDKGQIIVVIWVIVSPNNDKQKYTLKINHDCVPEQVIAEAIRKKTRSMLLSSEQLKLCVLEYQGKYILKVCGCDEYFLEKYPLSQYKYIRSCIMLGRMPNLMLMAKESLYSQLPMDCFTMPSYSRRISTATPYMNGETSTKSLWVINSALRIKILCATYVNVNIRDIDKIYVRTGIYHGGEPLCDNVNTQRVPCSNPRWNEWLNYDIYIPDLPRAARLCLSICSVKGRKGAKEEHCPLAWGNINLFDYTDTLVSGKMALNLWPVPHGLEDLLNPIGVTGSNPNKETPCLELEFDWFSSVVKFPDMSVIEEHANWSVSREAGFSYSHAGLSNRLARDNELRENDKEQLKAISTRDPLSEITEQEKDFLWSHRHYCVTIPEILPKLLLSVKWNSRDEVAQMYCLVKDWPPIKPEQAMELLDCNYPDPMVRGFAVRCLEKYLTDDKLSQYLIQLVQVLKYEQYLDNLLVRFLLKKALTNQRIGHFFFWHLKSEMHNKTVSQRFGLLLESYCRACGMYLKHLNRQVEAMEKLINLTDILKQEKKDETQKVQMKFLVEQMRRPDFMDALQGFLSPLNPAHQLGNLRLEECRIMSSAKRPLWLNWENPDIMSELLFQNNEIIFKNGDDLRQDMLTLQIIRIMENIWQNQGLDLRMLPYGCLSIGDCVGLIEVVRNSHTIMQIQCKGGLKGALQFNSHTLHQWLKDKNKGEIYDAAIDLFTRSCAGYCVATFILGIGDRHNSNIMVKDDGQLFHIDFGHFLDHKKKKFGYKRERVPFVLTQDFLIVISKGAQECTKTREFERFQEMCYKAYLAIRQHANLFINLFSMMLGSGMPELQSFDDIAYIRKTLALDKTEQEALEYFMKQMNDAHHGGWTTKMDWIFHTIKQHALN
T5 sequence (P27986 whole entry partner): as the sequence (P27986 whole entry partner) above
Experimental: as §1, §2, §3, §4, §5, §6, §7, §8, §9, §10

PI3Kγ = biological target: T6, PI3Kγ (Homo sapiens, UniProt P48736); test: kinobeads assay, PI3Kγ; format: binding; conditions: 1:1 mix of Jurkat and Ramos cell lysates, read-out: Inhibition values (IC50 in μM) as determined in the kinobeads assay, PI3Kγ
T6 construct: endogenous in cells; host or cells: Jurkat (ATCC TIB-152, clone E6-1) and Ramos (ATCC CRL-1596), 1:1 lysate mix
T6 sequence (P48736 whole entry): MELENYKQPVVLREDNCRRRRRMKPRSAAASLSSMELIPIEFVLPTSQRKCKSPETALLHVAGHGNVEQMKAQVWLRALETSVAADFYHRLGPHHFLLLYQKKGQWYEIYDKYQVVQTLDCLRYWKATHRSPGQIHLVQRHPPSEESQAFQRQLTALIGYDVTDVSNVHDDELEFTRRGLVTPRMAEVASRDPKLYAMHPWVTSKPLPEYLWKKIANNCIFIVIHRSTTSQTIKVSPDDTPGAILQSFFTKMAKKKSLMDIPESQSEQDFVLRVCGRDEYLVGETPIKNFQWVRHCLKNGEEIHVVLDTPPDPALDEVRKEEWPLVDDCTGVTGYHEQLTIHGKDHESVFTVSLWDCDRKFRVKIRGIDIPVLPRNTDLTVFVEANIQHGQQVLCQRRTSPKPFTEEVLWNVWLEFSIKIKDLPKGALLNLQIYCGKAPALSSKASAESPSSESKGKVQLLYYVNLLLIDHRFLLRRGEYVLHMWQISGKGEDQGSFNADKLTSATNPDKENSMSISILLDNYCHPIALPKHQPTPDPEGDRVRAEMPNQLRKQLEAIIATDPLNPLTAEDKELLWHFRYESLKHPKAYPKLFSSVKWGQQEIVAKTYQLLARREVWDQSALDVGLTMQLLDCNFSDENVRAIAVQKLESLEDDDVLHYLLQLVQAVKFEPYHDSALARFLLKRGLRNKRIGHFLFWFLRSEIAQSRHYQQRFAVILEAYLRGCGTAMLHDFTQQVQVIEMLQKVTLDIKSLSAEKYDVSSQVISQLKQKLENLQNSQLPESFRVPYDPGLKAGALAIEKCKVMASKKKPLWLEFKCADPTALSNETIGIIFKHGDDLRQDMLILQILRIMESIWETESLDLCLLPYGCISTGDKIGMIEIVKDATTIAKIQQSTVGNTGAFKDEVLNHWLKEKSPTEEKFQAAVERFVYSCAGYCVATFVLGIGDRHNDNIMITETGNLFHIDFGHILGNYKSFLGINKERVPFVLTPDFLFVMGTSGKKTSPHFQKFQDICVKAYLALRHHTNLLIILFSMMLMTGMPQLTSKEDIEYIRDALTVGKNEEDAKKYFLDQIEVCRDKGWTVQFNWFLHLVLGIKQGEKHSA
Experimental: as §1, §2, §3, §4, §5, §6, §7, §8, §9, §10

T1 sequence (P42338 whole entry): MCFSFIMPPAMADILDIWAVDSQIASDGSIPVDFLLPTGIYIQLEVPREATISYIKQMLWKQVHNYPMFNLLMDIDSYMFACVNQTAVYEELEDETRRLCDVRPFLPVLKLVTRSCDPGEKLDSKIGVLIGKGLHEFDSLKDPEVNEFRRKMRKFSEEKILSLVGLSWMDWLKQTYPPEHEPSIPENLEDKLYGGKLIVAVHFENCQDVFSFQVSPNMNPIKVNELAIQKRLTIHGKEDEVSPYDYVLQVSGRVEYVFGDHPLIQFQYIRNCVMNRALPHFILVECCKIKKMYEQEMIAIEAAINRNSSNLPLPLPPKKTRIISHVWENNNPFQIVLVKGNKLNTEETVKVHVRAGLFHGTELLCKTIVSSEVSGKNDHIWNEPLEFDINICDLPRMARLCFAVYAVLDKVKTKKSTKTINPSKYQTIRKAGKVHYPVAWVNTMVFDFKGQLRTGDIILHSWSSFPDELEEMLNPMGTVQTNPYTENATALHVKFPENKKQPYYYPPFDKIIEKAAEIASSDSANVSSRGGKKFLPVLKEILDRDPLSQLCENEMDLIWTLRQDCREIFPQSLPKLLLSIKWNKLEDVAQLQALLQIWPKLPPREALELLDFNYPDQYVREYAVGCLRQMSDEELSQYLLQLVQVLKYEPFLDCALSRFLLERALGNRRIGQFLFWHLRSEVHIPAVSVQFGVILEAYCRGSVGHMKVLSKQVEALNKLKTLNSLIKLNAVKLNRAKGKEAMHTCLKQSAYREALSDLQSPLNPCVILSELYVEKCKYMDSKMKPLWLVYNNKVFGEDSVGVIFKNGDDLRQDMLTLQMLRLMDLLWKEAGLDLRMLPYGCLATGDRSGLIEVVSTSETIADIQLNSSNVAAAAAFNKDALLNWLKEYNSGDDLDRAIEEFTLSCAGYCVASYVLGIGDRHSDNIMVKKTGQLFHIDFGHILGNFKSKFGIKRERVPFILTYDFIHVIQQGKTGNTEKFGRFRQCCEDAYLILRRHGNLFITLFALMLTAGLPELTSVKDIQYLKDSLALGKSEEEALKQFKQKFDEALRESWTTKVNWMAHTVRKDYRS
T1 sequence (P27986 whole entry partner): as the sequence (P27986 whole entry partner) above

Compound: C[C@H]1COCCN1c1nc2c(c(-c3ccc(NC(=O)Nc4cccc(O)n4)cc3)n1)CNC2 [Example 25, (S)-1-(6-hydroxypyridin-2-yl)-3-(4-(2-(3-methylmorpholino)-6,7-dihydro-5H-pyrrolo[3,4-d]pyrimidin-4-yl)phenyl)urea]
- IC50 (PI3Kβ): 1 to 10 µM
- IC50 [1]: > 100 µM
- IC50 (mTOR): 0.1 to 1 µM
- IC50 (PI3Kδ): 10 to 100 µM
- IC50 (PI3Kα): 1 to 10 µM
- IC50 (PI3Kγ): 1 to 10 µM

Compound: CCNC(=O)Nc1ccc(-c2nc(N3CCOC[C@@H]3C)nc3c2CN(C(=O)OCC)C3)cc1 [Example 8, (S)-ethyl 4-(4-(3-ethylureido)phenyl)-2-(3-methylmorpholino)-5H-pyrrolo[3,4-d]pyrimidine-6(7H)-carboxylate]
- IC50 (PI3Kβ): > 100 µM
- IC50 [1]: > 100 µM
- IC50 (mTOR): 10 to 100 µM
- IC50 (PI3Kδ): > 100 µM
- IC50 (PI3Kα): > 100 µM
- IC50 (PI3Kγ): > 100 µM

Compound: CC(C)N1Cc2nc(N3CCOC[C@@H]3C)nc(-c3ccc(NC(=O)NCCC#N)cc3)c2C1 [Example 52, (S)-1-(2-cyanoethyl)-3-(4-(6-isopropyl-2-(3-methylmorpholino)-6,7-dihydro-5H-pyrrolo[3,4-d]pyrimidin-4-yl)phenyl)urea 2,2,2-trifluoroacetate]
- IC50 (PI3Kβ): > 100 µM
- IC50 [1]: > 100 µM
- IC50 (mTOR): 1 to 10 µM
- IC50 (PI3Kδ): > 100 µM
- IC50 (PI3Kα): > 100 µM
- IC50 (PI3Kγ): > 100 µM

Compound: CCNC(=O)Nc1ccc(-c2nc(N3CC4CCC(C3)O4)nc3c2CN(C(C)C)C3)cc1 [Example 49, 1-(4-(2-(8-oxa-3-azabicyclo[3.2.1]octan-3-yl)-6-isopropyl-6,7-dihydro-5H-pyrrolo[3,4-d]pyrimidin-4-yl)phenyl)-3-ethylurea 2,2,2-trifluoroacetate]
- IC50 (PI3Kβ): > 100 µM
- IC50 [1]: > 100 µM
- IC50 (mTOR): 1 to 10 µM
- IC50 (PI3Kδ): > 100 µM
- IC50 (PI3Kα): > 100 µM
- IC50 (PI3Kγ): > 100 µM

Compound: C[C@H]1COCCN1c1nc2c(c(-c3ccc(NC(=O)NC4CC4)cc3)n1)CN(C(=O)CCCN(C)C)C2 [Example 32, (S)-1-cyclopropyl-3-(4-(6-(4-(dimethylamino)butanoyl)-2-(3-methylmorpholino)-6,7-dihydro-5H-pyrrolo[3,4-d]pyrimidin-4-yl)phenyl)urea]
- IC50 (PI3Kβ): 1 to 10 µM
- IC50 [1]: 10 to 100 µM
- IC50 (mTOR): 1 to 10 µM
- IC50 (PI3Kδ): 10 to 100 µM
- IC50 (PI3Kα): > 100 µM
- IC50 (PI3Kγ): 10 to 100 µM

Compound: C[C@H]1COCCN1c1nc2c(c(-c3ccc(NC(=O)NC4CC4)cc3)n1)CN(S(C)(=O)=O)C2 [Example 15, (S)-1-cyclopropyl-3-(4-(2-(3-methylmorpholino)-6-(methylsulfonyl)-6,7-dihydro-5H-pyrrolo[3,4-d]pyrimidin-4-yl)phenyl)urea]
- IC50 (PI3Kβ): > 100 µM
- IC50 [1]: > 100 µM
- IC50 (mTOR): 0.1 to 1 µM
- IC50 (PI3Kδ): > 100 µM
- IC50 (PI3Kα): > 100 µM
- IC50 (PI3Kγ): > 100 µM

Compound: COCCC(=O)N1Cc2nc(N3CCOC[C@@H]3C)nc(-c3ccc(NC(=O)NC4CC4)cc3)c2C1 [Example 31, (S)-1-cyclopropyl-3-(4-(6-(3-methoxypropanoyl)-2-(3-methylmorpholino)-6,7-dihydro-5H-pyrrolo[3,4-d]pyrimidin-4-yl)phenyl)urea]
- IC50 (PI3Kβ): 10 to 100 µM
- IC50 [1]: > 100 µM
- IC50 (mTOR): 0.1 to 1 µM
- IC50 (PI3Kδ): 10 to 100 µM
- IC50 (PI3Kα): > 100 µM
- IC50 (PI3Kγ): > 100 µM

Compound: O=C(Nc1ccc(-c2nc(N3CC4CCC(C3)O4)nc3c2CNC3)cc1)NC1CC1 [Example 18, 1-(4-(2-(8-oxa-3-azabicyclo[3.2.1]octan-3-yl)-6,7-dihydro-5H-pyrrolo[3,4-d]pyrimidin-4-yl)phenyl)-3-cyclopropylurea]
- IC50 (PI3Kβ): > 100 µM
- IC50 [1]: 10 to 100 µM
- IC50 (mTOR): 0.1 to 1 µM
- IC50 (PI3Kδ): > 100 µM
- IC50 (PI3Kα): > 100 µM
- IC50 (PI3Kγ): > 100 µM

Compound: C[C@H]1COCCN1c1nc2c(c(-c3ccc(NC(=O)NC4CC4)cc3)n1)CN(C(=O)C1CCCN1)C2 (stereo partly drawn) [Example 41, 1-cyclopropyl-3-(4-(2-((S)-3-methylmorpholino)-6-(pyrrolidine-2-carbonyl)-6,7-dihydro-5H-pyrrolo[3,4-d]pyrimidin-4-yl)phenyl)urea hydrochloride]
- IC50 (PI3Kβ): 10 to 100 µM
- IC50 [1]: > 100 µM
- IC50 (mTOR): 1 to 10 µM
- IC50 (PI3Kδ): 10 to 100 µM
- IC50 (PI3Kα): 10 to 100 µM
- IC50 (PI3Kγ): 10 to 100 µM

Compound: CCOC(=O)N1Cc2nc(N3CCOC[C@@H]3C)nc(-c3ccc(NC(=O)NC4CC4)cc3)c2C1 [Example 9, (S)-ethyl 4-(4-(3-cyclopropylureido)phenyl)-2-(3-methylmorpholino)-5H-pyrrolo[3,4-d]pyrimidine-6(7H)-carboxylate]
- IC50 (PI3Kβ): > 100 µM
- IC50 [1]: > 100 µM
- IC50 (mTOR): 1 to 10 µM
- IC50 (PI3Kδ): > 100 µM
- IC50 (PI3Kα): > 100 µM
- IC50 (PI3Kγ): > 100 µM

Compound: C[C@H]1COCCN1c1nc2c(c(-c3ccc(NC(=O)NCCO)cc3)n1)CN(C1CCCCC1)C2 [Example 38, (S)-1-(4-(6-cyclohexyl-2-(3-methylmorpholino)-6,7-dihydro-5H-pyrrolo[3,4-d]pyrimidin-4-yl)phenyl)-3-(2-hydroxyethyl)urea]
- IC50 (PI3Kβ): > 100 µM
- IC50 [1]: > 100 µM
- IC50 (mTOR): 1 to 10 µM
- IC50 (PI3Kδ): > 100 µM
- IC50 (PI3Kα): > 100 µM
- IC50 (PI3Kγ): > 100 µM

Compound: CC(=O)N1Cc2nc(N3CCOC[C@@H]3C)nc(-c3ccc(NC(=O)NC4CC4)cc3)c2C1 [Example 12, (S)-1-(4-(6-acetyl-2-(3-methylmorpholino)-6,7-dihydro-5H-pyrrolo[3,4-d]pyrimidin-4-yl)phenyl)-3-cyclopropylurea]
- IC50 (PI3Kβ): 10 to 100 µM
- IC50 [1]: > 100 µM
- IC50 (mTOR): 1 to 10 µM
- IC50 (PI3Kδ): 10 to 100 µM
- IC50 (PI3Kα): 10 to 100 µM
- IC50 (PI3Kγ): > 100 µM

Compound: C[C@H]1COCCN1C(=O)Nc1ccc(-c2nc(N3CCOC[C@@H]3C)nc3c2CNC3)cc1 [Example 16, (S)-3-methyl-N-(4-(2-((S)-3-methylmorpholino)-6,7-dihydro-5H-pyrrolo[3,4-d]pyrimidin-4-yl)phenyl)morpholine-4-carboxamide]
- IC50 (PI3Kβ): > 100 µM
- IC50 [1]: > 100 µM
- IC50 (mTOR): 1 to 10 µM
- IC50 (PI3Kδ): > 100 µM
- IC50 (PI3Kα): > 100 µM
- IC50 (PI3Kγ): > 100 µM
